Like-named read-outs stand apart in the source and are kept apart here.
Tests used:
[1] = biological target: T1, CB2 receptor (Homo sapiens, UniProt P34972); assay: cAMP accumulation assay in CHO cells expressing CB2; format: cell-based; set-up: expressed in transfected cells; host or cells: CHO cells; settings: cAMP accumulation, forskolin 10 µM, normalized to CP55,940; for efficacy at CB2 receptor (in words): test concentration 1 µM or 10 µM
[2] = biological target: T2, CB1 receptor (Homo sapiens, UniProt P21554); assay: cell-based; format: cell-based; set-up: expressed in transfected cells; host or cells: CHO cells; settings: cAMP accumulation, forskolin 10 µM; test concentration 1 µM or 10 µM; normalized to CP55,940
[3] = biological target: T2, CB1 receptor; assay: biochemical; format: binding; set-up: expressed in transfected cells; host or cells: CHO cells (membrane preparation); settings: for CB1 selectivity Ki CB2/KiCB1: Table S1, selectivity index from Ki values; for Ki: versus 0.1 nM [3H]CP55,940, CHO cell membranes, mean ± SEM of three to five experiments, read-out: Ki ± SEM Human CB1
[4] = biological target: T3, human GPR55 (Homo sapiens, UniProt Q9Y2T6); assay: β-Arrestin recruitment assay (PathHunter) at GPR55; format: cell-based; settings: for IC50: antagonist mode; for Human GPR55 % activation: percent in brackets beside EC50 >10 µM; for Human GPR55 % inhibition: percent in brackets beside IC50
T3 construct: β-galactosidase enzyme fragment (PathHunter complementation tag)
Protocol: (§1) Recruitment of β-arrestin to the respective receptor was detected by using β-galactosidase enzyme fragment complementation technology (β-arrestin PathHunter™ assay, DiscoverX, Fremont, CA, USA) as previously described. Data were obtained from three independent experiments, performed in duplicates. Data were analyzed using Graph Pad Prism Version 4.02 (San Diego, CA, USA).

[5] = biological target: T4, human GPR18 (Homo sapiens, UniProt Q14330); assay: β-Arrestin recruitment assay (PathHunter) at GPR18; format: cell-based; settings: for Human GPR18 % activation: percent in brackets beside EC50 >10 µM; for Human GPR18 % inhibition: percent in brackets beside IC50
T4 construct: β-galactosidase enzyme fragment (PathHunter complementation tag)
T4 sequence (Q14330 1-331): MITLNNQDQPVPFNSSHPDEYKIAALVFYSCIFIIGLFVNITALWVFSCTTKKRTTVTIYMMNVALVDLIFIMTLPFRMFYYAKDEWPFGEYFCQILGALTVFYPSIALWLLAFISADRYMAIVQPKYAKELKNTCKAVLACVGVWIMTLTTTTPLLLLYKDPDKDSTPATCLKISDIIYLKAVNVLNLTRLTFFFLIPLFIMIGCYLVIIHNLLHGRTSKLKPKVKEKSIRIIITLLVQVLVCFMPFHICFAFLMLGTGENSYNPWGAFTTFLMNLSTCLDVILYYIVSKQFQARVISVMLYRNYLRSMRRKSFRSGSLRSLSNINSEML
Protocol: as §1

[6] = biological target: T1, CB2 receptor; assay: biochemical; format: binding; set-up: expressed in transfected cells; host or cells: CHO cells (membrane preparation); settings: for CB2 selectivity Ki CB1/KiCB2: Table S1, selectivity index from Ki values; for Ki: versus 0.1 nM [3H]CP55,940, CHO cell membranes, mean ± SEM of three to five experiments, read-out: Ki ± SEM Human CB2
[7] = test system: Human CB2; settings: ref Banister et al. [28]; read-out: EC50 Human CB2 (literature, functional assay) (converted); cited from earlier work
[8] = test system: Human CB1; settings: ref Banister et al. [28]; read-out: EC50 Human CB1 (literature, functional assay) (converted); cited from earlier work
[9] = Human GPR55 IC50, β-arrestin assay

T1 sequence (P34972 whole entry): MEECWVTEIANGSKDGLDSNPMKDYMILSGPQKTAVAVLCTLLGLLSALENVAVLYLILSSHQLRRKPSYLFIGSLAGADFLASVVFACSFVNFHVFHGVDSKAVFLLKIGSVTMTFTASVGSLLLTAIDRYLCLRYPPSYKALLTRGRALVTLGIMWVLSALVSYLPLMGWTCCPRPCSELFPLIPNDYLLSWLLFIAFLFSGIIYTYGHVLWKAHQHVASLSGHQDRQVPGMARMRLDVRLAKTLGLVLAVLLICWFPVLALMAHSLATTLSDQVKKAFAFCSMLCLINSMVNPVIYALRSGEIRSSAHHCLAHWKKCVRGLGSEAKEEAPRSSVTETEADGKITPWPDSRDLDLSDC
T3 sequence (Q9Y2T6 whole entry, the tested form may be a part): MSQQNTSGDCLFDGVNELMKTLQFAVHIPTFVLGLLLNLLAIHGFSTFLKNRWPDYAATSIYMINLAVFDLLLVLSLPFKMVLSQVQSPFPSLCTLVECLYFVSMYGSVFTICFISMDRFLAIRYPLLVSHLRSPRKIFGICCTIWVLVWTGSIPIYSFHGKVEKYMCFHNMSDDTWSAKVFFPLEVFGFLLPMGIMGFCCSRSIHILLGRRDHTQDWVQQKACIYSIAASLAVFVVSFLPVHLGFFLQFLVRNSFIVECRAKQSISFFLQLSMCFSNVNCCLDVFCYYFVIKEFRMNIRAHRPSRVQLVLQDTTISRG
T2 sequence (P21554 whole entry): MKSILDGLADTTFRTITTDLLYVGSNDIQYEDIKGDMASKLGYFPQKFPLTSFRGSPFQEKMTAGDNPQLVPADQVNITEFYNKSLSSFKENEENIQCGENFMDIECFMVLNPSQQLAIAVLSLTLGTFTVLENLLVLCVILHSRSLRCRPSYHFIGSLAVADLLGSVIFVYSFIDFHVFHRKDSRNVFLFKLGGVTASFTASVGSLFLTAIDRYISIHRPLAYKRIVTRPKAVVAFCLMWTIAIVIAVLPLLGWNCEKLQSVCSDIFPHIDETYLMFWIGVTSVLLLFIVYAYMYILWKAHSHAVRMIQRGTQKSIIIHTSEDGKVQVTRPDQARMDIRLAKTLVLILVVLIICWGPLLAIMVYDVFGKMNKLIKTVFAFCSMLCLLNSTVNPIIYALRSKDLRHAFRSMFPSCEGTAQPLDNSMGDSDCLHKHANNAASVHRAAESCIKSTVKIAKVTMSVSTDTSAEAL

| SMILES | efficacy at CB1 receptor (in words) [2] | CB1 selectivity Ki CB2/KiCB1 [3] | Ki [3] | EC50 [4] | IC50 [4, 9] | Human GPR55 % activation ([4]; β-arrestin assay) | EC50 [5] | IC50 [5] | Human GPR18 % activation ([5]; β-arrestin assay) | Human GPR18 % inhibition ([5]; β-arrestin assay) | CB2 selectivity Ki CB1/KiCB2 [6] | Ki [6] | Human GPR55 % inhibition ([4]; β-arrestin assay) | other results |
| --- | --- | --- | --- | --- | --- | --- | --- | --- | --- | --- | --- | --- | --- | --- |
| CCCCCc1cc(O)c2c(c1)OC(C)(C)[C@@H]1CCC(C)=C[C@@H]21 [Compound 1, Δ^9-tetrahydrocannabinol, reference compound] | – | – | – | – | – | – | – | – | – | – | – | – | – | activation of CB2 receptor compared to full agonist CP55,940 [1]: 60–70% |
| CCc1ccc(C(=O)c2cn(CCCCCF)c3ccccc23)c2ccccc12 [Compound 31, EAM-2201] | higher efficacy than the full agonist CP55,940 | 1.0 | 0.38 ± 0.111 nM | > 10000 nM | 1860 ± 160 nM | −24% | > 10000 nM | > 10000 nM | 14% | 4% | 1.0 | 0.371 ± 0.052 nM | – | – |
| CN1CCCCC(Cn2cc(C(=O)C3C(C)(C)C3(C)C)c3ccccc32)C1 (stereo not drawn) [Compound 44, AB005-azepane-isomer] | did not activate | – | > 10000 nM | – | – | 21% | – | – | 11% | −6% | 47.2 | 212 ± 55 nM | 18% | affinity for the CB1 receptor (in words) ([3]; at concentrations up to 10 µM): no affinity; inhibition of radioligand binding at human CB1 (percent in brackets) ([3]; printed in brackets beside Ki ~/>10,000 nM, concentration not given): 13%; EC50 ([4]; read-out: Human GPR55 EC50, β-arrestin assay, agonist mode): > 10000 nM; IC50 ([4]; read-out: Human GPR55 IC50, β-arrestin assay): > 10000 nM; EC50 ([5]; read-out: Human GPR18 EC50, β-arrestin assay, agonist mode): > 10000 nM; IC50 ([5]; read-out: Human GPR18 IC50, β-arrestin assay, antagonist mode): > 10000 nM; efficacy at CB2 receptor (in words) [1]: did not activate |
| O=C(Oc1cccc2ccccc12)c1cn(CCCCCF)c2ccccc12 [Compound 19, NM-2201] | higher efficacy than the full agonist CP55,940 | 2.2 | 0.332 ± 0.107 nM | > 10000 nM | > 10000 nM | 17% | > 10000 nM | > 10000 nM | −8% | 32% | – | 0.732 ± 0.174 nM | 23% | – |
| CCCCCn1nc(C(=O)Nc2cccc3ccccc23)c2ccccc21 [Compound 8, MN-18] | lower efficacy than Δ^9-THC | 0.9 | 3.86 ± 0.9 nM | > 10000 nM | > 10000 nM | 27% | > 10000 nM | > 10000 nM | 2% | 37% | 1.1 | 3.47 ± 0.89 nM | 35% | efficacy at CB2 receptor (in words) [1]: lower efficacy than Δ^9-THC |
| O=C(NC12CC3CC(CC(C3)C1)C2)c1nn(CCCCCF)c2ccccc12 [Compound 17, 5F-APINACA (5F-AKB48)] | activated CB1 receptor more efficaciously than CB2 | – | 1.94 ± 0.55 nM | – | – | – | – | – | – | – | 7.3 | 0.266 ± 0.041 nM | – | – |
| O=C(Nc1ccc2ccccc2c1)c1cn(CCCCCF)c2ccccc12 [Compound 7, 5F-NNEI-2-naphthyl-isomer] | lower efficacy than Δ^9-THC | 1.0 | 235 ± 15 nM | > 10000 nM | > 10000 nM | 19% | > 10000 nM | > 10000 nM | 9% | 5% | 1.0 | 226 ± 24 nM | 20% | fold decrease of affinity when naphthyl is linked in 2-position ([3]; CB1, compared with 5F-NNEI (5)): about 100 fold; inhibition at 30 µM ([6]; at 30 µM, read-out: Maximal inhibition of radioligand binding, human CB2): 80%; efficacy at CB2 receptor (in words) [1]: lower efficacy than Δ^9-THC |
| CCCCCn1nc(C(=O)c2cccc3ccccc23)c2ccccc21 [Compound 28, THJ018] | – | – | 5.84 ± 1.32 nM | > 10000 nM | 8200 ± 2110 nM | 6% | > 10000 nM | > 10000 nM | 33% | −5% | 1.3 | 4.57 ± 0.28 nM | – | – |
| O=C(Oc1cccc2cccnc12)c1cn(CC2CCCCC2)c2ccccc12 [Compound 27, BB-22] | higher efficacy than the full agonist CP55,940 | 1.6 | 0.217 ± 0.056 nM | > 10000 nM | > 10000 nM | 9% | > 10000 nM | > 10000 nM | 2% | 18% | – | 0.338 ± 0.045 nM | 34% | – |
| CC1(C)C(C(=O)c2cn(CCCCCF)c3ccccc23)C1(C)C [Compound 38, XLR-11] | – | – | 29.4 ± 11 nM | – | – | – | – | – | – | – | 48.4 | 0.608 ± 0.151 nM | – | EC50 [7]: 83 nM; EC50 [8]: 98 nM |
| Cc1c(C(=O)C2C(C)(C)C2(C)C)c2ccccc2n1CCCCCF [Compound 47, M-144] | – | – | 19.4 ± 7.8 nM | > 10000 nM | ~10000 nM | −5% | > 10000 nM | ~10000 nM | −7% | 67% | 4.2 | 4.59 ± 1.48 nM | 86% | – |
| CC1(C)C(C(=O)c2nn(CCCCCF)c3ccccc23)C1(C)C [Compound 40, FAB-144] | – | – | 17.5 ± 1.1 nM | > 10000 nM | ~10000 nM | 5% | > 10000 nM | ~10000 nM | 2% | 57% | 38.9 | 0.45 ± 0.111 nM | 77% | – |
| CCCCCn1cc(C(=O)Nc2ccccc2)c2ccccc21 [Compound 14, SDB-006-N-phenyl-analog] | – | – | 163 ± 17 nM | > 10000 nM | > 10000 nM | 20% | > 10000 nM | > 10000 nM | 9% | −13% | – | 275 ± 25 nM | 1% | – |

Reference: PMC4929166, “Pharmacological evaluation of synthetic cannabinoids identified as constituents of spice” (Forensic Toxicology, 2016)
